Results taken from US11155561B2, “Substituted glutarimides as Btk inhibitors” (SHANGHAI MEIZER PHARMACEUTICALS CO., LTD., priority 2017, dated 2021).

How the values were obtained:
[1] = test system: DOHH2 cells (human B cell lymphoma cells); assay: Inhibition of proliferation of DOHH2 cells by CTG assay; assay type: cell-based; settings: DOHH-2, compound 10 μM, 72 hours
Protocol: (§1) Example 8 Testing the Inhibitory Effect of Formula Compounds on the Proliferation of DOHH2 Cells (Human B Cell Lymphoma Cells) and SU-DHL-6 (Human B Cell Lymphoma Cells) by CTG Assay
(§2) The […] was used to determine the inhibitory effect of the compounds on the proliferation of DOHH2 cells (available from ATCC) and SU-DHL-6 cells (available from ATCC) in vitro. Cells were cultured and compounds were prepared referring to Example 7. The cell plating density was 1×10^4 cells/well for DOHH2 cells, and 1.5×10^4 cells/well for SU-DHL-6 cells. The culture time after the administration was 72 hours. After that an appropriate amount of CTG reagent was added, the luminescence value was measured, and the inhibition rate was calculated.

[2] = test system: RPMI 8226 cells (human multiple myeloma cells); assay: Inhibition of proliferation of RPMI 8226 cells by CCK8 assay; assay type: cell-based; settings: 48 hours
Protocol: Example 7 Testing the Inhibitory Effect of Formula Compounds on the Proliferation of RPMI 8226 Cells (Human Multiple Myeloma Cells) by CCK8 Assay
The inhibitory effect of the compound on the proliferation of RPMI 8226 cells (commercially available from ATCC) was determined by the CCK8 assay in vitro. The experimental steps were as follows:
RPMI 8226 cells were cultured in 1640 medium containing 10% calf serum, seeded in a 96-well plate with 2×10^5 cells/well, and placed in a 37° C., 5% CO2 incubator. The compound was dissolved in dimethyl sulfoxide (DMSO) to obtain a solution with a concentration of 10 mM, and then diluted to the desired concentration with a phosphate buffer solution. The solution was added to the above 96-well plate. Each concentration has 2 wells with 10 μl per well. Each concentration was tested in duplicate. As a control, DMSO was diluted in the corresponding gradient and then added to the plate.
After the 96-well plate was cultured in a 37° C., 5% CO2 cell incubator for 48 hours, 10 μl of CCK8 solution was added to each well, and it was cultured in the incubator for another 1 to 4 hours. The light absorption value at 465 nm was measured.
The relative survival rate of the cells after the compound treatment was calculated based on the light absorption value.
The IC50 of the compound against RPMI 8226 cells was calculated by software.

[3] = test system: SU-DHL-6 (human B cell lymphoma cells); assay: Inhibition of proliferation of SU-DHL-6 cells by CTG assay; assay type: cell-based; settings: compound 10 μM, 72 hours
Protocol: as §1, §2

Btk [4] = molecular target: T1, Btk (Homo sapiens, UniProt Q06187); assay: Inhibition activity of compounds on Btk by Caliper assay; assay type: biochemical; settings: compound 100 nM, Btk kinase
Protocol: Example 5 Testing the Inhibition Activity of Compounds on Btk by Caliper Assay
The experimental steps were as follows:
Preparation of 1× kinase reaction buffer (50 mM HEPES, PH 7.5; 0.0015% Brij-35) and kinase reaction termination solution (100 mM HEPES, PH 7.5; 0.0015% Brij-35; 0.2% Coating Reagent; 50 mM EDTA);
Preparation of experimental samples: 100 μL of 5 μM sample solution (dissolved in 100% DMSO) was added to a 96-well plate to obtain a 50× sample solution. As a control, two wells were set containing only 100 μL of 100% DMSO on the same plate. One was served as a control without samples and the other was served as a control without enzymes. 10 μL of sample and 90 μL of 1× kinase reaction buffer were added to a 96-well plate as a transfer plate. The transfer plate was shaken for 10 minutes.
Preparation of the test plate: taking 5 μL each of the prepared samples in the 96-well transfer plate into a 384-well plate.
Kinase reaction: to 5 μL of 5× compound solution (dissolved in DMSO, diluted 10 times with water) was added 10 μL of 2.5× Btk kinase solution (kinase was diluted with 1× kinase reaction buffer), and incubated at room temperature for 10 min, then 10 μL of 2.5× substrate peptide solution (FAM-labeled peptide and ATP were diluted with 1× kinase reaction buffer) was added.
Termination of the kinase reaction: 25 μL of kinase termination solution was added after being reacted at 28° C. for a period of time.
The fluorescence (F) was tested on a Caliper and data was collected.
The inhibition rate of kinase activity was calculated: the percent inhibition rate of kinase activity=(FDMSO control−Fsample)/(FDMSO control−Fnegative control)×100, with DMSO as the solution control, and no kinase as the negative control.

Btk [5] = molecular target: T1, Btk; assay: Btk protein degradation activity by Western blot in RPMI8226 cells; assay type: cell-based; design: degradation activity of the compound (10 μM) on Btk protein in RPMI8226 cells; endogenous in cells; host or cells: RPMI8226; settings: compound 10 μM, 24 hours
Protocol: Example 6 Testing the Btk Protein Degradation Activity of Compounds by Western Blot
Cell lines: RPMI8226 Cell line was cultured in RPMI1640 medium containing 10% calf serum in a 37° C., 5% CO2, and saturated humidity incubator.
DMSO control group and compound intervention group (10 μM) were set. Cells was collected after the treatment for 24 hours, then 100 μL of pre-chilled cell lysate was added and cells were lysed on ice for 30 minutes. Total cell protein was extracted, and protein concentration was determined and quantified by […] (BCA) method. After routine gelatinization, loading, electrophoresis, then transferring to membrane and blocking, rabbit anti-human Btk (1:500) was added, and incubated at 4° C. overnight. The mixture was rinsed and then horseradish peroxidase labeled goat anti-rabbit IgG (1:5000) was added. After the rinsing it was developed by the ECL developing solution, the Bio-Rad gel imaging system was used for scanning and imaging, and the computer software was used for analysis. […] (GAPDH) was used as an internal control.
Image J software was used to analyze the gray scale of each band to calculate the Btk protein degradation rate of the compound.

T1 sequence (Q06187 whole entry): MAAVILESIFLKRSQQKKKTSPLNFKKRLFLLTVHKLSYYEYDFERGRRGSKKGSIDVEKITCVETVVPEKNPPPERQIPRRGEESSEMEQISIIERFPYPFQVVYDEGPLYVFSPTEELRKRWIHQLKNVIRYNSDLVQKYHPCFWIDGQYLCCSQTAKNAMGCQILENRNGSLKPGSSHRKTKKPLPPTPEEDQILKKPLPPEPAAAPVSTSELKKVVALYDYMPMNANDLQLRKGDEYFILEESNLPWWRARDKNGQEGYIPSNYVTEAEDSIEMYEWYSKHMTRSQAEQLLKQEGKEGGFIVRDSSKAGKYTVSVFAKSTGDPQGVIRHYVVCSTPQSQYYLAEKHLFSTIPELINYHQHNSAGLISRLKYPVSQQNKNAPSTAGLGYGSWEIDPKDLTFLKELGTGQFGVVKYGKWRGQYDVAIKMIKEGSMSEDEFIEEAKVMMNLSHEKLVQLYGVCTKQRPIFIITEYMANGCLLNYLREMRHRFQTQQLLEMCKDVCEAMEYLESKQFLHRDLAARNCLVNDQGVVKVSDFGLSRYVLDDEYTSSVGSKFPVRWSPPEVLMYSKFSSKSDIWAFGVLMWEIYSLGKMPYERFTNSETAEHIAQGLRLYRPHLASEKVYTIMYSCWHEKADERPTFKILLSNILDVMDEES

| IC50 [2] | inhibition at 0.1 µM (Btk [4]) | Structure (SMILES) | inhibition at 10 µM [1] | inhibition at 10 µM [3] | Degradation activity (Btk [5]) |
| --- | --- | --- | --- | --- | --- |
| 34 µM | 92% | Nc1ncnc2c1c(-c1ccc(Oc3ccccc3)cc1)nn2[C@@H]1CCCN(CCCCCC(=O)Nc2cccc3c2C(=O)N(C2CCC(=O)NC2=O)C3=O)C1 (stereo partly shown) [Compound 3] | 87% | 60% | ++++ (“++++” means the degradation rate is greater than 90%) |
| 83 µM | 99% | Nc1ncnc2c1c(-c1ccc(Oc3ccccc3)cc1)nn2C1CCCN(CCOCCOCCOc2cccc3c2C(=O)N(C2CCC(=O)NC2=O)C3=O)C1 (stereo not shown) [Compound 7] | 63% | 53% | ++++ (“++++” means the degradation rate is greater than 90%) |
| 6 µM | 99% | Nc1ncnc2c1c(-c1ccc(Oc3ccccc3)cc1)nn2C1CCCN(CCOCCOCCNc2cccc3c2C(=O)N(C2CCC(=O)NC2=O)C3=O)C1 (stereo not shown) [Compound 14] | 98% | 87% | ++++ (“++++” means the degradation rate is greater than 90%) |
| – | 95% | Nc1ncnc2c1c(-c1ccc(Oc3ccccc3)cc1)nn2C1CCCN(CCOCCOCCOCCOc2cccc3c2C(=O)N(C2CCC(=O)NC2=O)C3=O)C1 (stereo not shown) [Compound 16] | 84% | 71% | ++++ (“++++” means the degradation rate is greater than 90%) |
